From ChEMBL document CHEMBL1201862, “PubChem BioAssay data set” (2004)
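The compound was tested at five concentrations on cells cultured in 96-well plates, with a 48-hour exposure period. GI50 is the concentration that inhibits growth by half.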 Calls of active or inactive are those of the source. Rule as the data show it: active = GI50 up to about 1.1 µM and inactive = higher.

Legend:
Experiment in all cases: DTP human tumour cell line panel, 48 h
[1] = system: EKVX
[2] = system: Malme-3M
[3] = system: M14
[4] = system: TK-10
[5] = system: SK-MEL-28
[6] = system: ACHN
[7] = system: SK-OV-3
[8] = system: NCI-H522
[9] = system: A549
[10] = system: SF-295
[11] = system: OVCAR-3
[12] = system: IGROV-1
[13] = system: OVCAR-5
[14] = system: RXF 393
[15] = system: SR
[16] = system: UACC-257
[17] = system: 786-0

SMILES	GI50 [1]	GI50 [2]	GI50 [3]	GI50 [4]	GI50 [5]	GI50 [6]	GI50 [7]	GI50 [8]	GI50 [9]	GI50 [10]	GI50 [11]	GI50 [12]	GI50 [13]	GI50 [14]	GI50 [15]	GI50 [16]	GI50 [17]
CC(=O)OC(C)(C)/C=C/C(=O)[C@](C)(O)[C@H]1[C@H](O)C[C@@]2(C)[C@@H]3CC=C4[C@@H](C[C@H](O)[C@H](O)C4(C)C)[C@]3(C)C(=O)C[C@]12C	0.601 µM (active)	1.11 µM (active)	0.442 µM (active)	0.548 µM (active)	0.526 µM (active)	0.498 µM (active)	2.79 µM (inactive)	0.259 µM (active)	0.822 µM (active)	0.973 µM (active)	0.314 µM (active)	0.925 µM (active)	0.883 µM (active)	0.383 µM (active)	0.224 µM (active)	0.638 µM (active)	0.24 µM (active)
CC(C)(C)N/N=C(\C(=O)Nc1nnc(S)[nH]1)C1C(=O)Nc2ccccc2[S+]1[O-] (stereo not given)	> 100 µM (inactive)	> 100 µM (inactive)	> 100 µM (inactive)	> 100 µM (inactive)	> 100 µM (inactive)	> 100 µM (inactive)	> 100 µM (inactive)	> 100 µM (inactive)	> 100 µM (inactive)	> 100 µM (inactive)	> 100 µM (inactive)	> 100 µM (inactive)	> 100 µM (inactive)	> 100 µM (inactive)	> 100 µM (inactive)	> 100 µM (inactive)	> 100 µM (inactive)
N#C/N=C1\NC(Cc2ccccc2)C(=O)N1CCc1c[nH]c2ccccc12 (stereo not given)	22.4 µM (inactive)		35.1 µM (inactive)	26.6 µM (inactive)	23.6 µM (inactive)		26.3 µM (inactive)		27 µM (inactive)	32.4 µM (inactive)	33.6 µM (inactive)	31.8 µM (inactive)		> 10 µM (inactive)	33.7 µM (inactive)	43.6 µM (inactive)	18.5 µM (inactive)
O=C(NC(=O)c1cc2cc(Br)cc(Br)c2oc1=O)Oc1ccccc1	> 100 µM (inactive)	> 100 µM (inactive)	> 100 µM (inactive)	47.9 µM (inactive)	> 100 µM (inactive)	21.7 µM (inactive)	37 µM (inactive)		> 100 µM (inactive)	49.9 µM (inactive)	> 100 µM (inactive)	50.7 µM (inactive)	> 100 µM (inactive)	28.2 µM (inactive)		59.2 µM (inactive)	45.3 µM (inactive)
Cc1cc(C)nc(NS(=O)(=O)c2ccc(NC(=O)c3cccc4c(Nc5ccc(S(=O)(=O)N=C(N)N)cc5)c5ccc(Cl)cc5nc34)cc2)n1	30.8 µM (inactive)	85.1 µM (inactive)	> 100 µM (inactive)	40 µM (inactive)	37.4 µM (inactive)	80.9 µM (inactive)	> 100 µM (inactive)	18.2 µM (inactive)		24.1 µM (inactive)	22.2 µM (inactive)		> 100 µM (inactive)	18.9 µM (inactive)	27.1 µM (inactive)	20.2 µM (inactive)	17.7 µM (inactive)
COc1ccc(C2S/C(=C\c3ccccc3)C(=O)N2NC(=O)Cc2ccccc2)cc1 (stereo not given)		> 100 µM (inactive)	> 100 µM (inactive)	> 100 µM (inactive)	26.1 µM (inactive)	> 100 µM (inactive)	> 100 µM (inactive)	> 100 µM (inactive)	> 100 µM (inactive)	> 100 µM (inactive)		> 100 µM (inactive)	> 100 µM (inactive)	> 100 µM (inactive)	68.5 µM (inactive)	> 100 µM (inactive)	> 100 µM (inactive)
Cc1cccc(C(C)(C)C)c1NC(=O)CC1C(=O)Nc2ccccc2S1(=O)=O (stereo not given)	2.87 µM (inactive)	11.8 µM (inactive)	12.8 µM (inactive)	20.5 µM (inactive)	14.1 µM (inactive)	10.8 µM (inactive)			13.6 µM (inactive)	7.1 µM (inactive)	5.55 µM (inactive)	9.33 µM (inactive)	13 µM (inactive)	13.4 µM (inactive)	3.21 µM (inactive)	27.6 µM (inactive)	10 µM (inactive)
COC(=O)[C@H]1COC(=S)N1C(=O)[C@@H](C)[C@H](O)C(C)C	> 100 µM (inactive)	> 100 µM (inactive)	> 100 µM (inactive)	> 100 µM (inactive)	> 100 µM (inactive)	> 100 µM (inactive)	> 100 µM (inactive)		> 100 µM (inactive)	> 100 µM (inactive)	> 100 µM (inactive)	> 100 µM (inactive)	> 100 µM (inactive)	> 100 µM (inactive)	> 100 µM (inactive)	> 100 µM (inactive)	> 100 µM (inactive)
O=C(CCc1nnc(S)[nH]1)Nc1cc(Cl)ccc1Cl	> 100 µM (inactive)	> 100 µM (inactive)	> 100 µM (inactive)	> 100 µM (inactive)	> 100 µM (inactive)	> 100 µM (inactive)	> 100 µM (inactive)	> 100 µM (inactive)	> 100 µM (inactive)	> 100 µM (inactive)	> 100 µM (inactive)	> 100 µM (inactive)	> 100 µM (inactive)		> 100 µM (inactive)	> 100 µM (inactive)	> 100 µM (inactive)
COC(=O)C(C(=O)C(=O)Nc1ccc(N)cc1[N+](=O)[O-])c1nc2ccc(Cl)cc2nc1O (stereo not given)	> 100 µM (inactive)	> 100 µM (inactive)	> 100 µM (inactive)	> 100 µM (inactive)	> 100 µM (inactive)	> 100 µM (inactive)	> 100 µM (inactive)		> 100 µM (inactive)	> 100 µM (inactive)	74.8 µM (inactive)	> 100 µM (inactive)	> 100 µM (inactive)	60.7 µM (inactive)		> 100 µM (inactive)	> 100 µM (inactive)
O=C(CC1Sc2ccccc2NC1=O)Nc1cc(Cl)ccc1Cl (stereo not given)	> 100 µM (inactive)	> 100 µM (inactive)	> 100 µM (inactive)	> 100 µM (inactive)	> 100 µM (inactive)	> 100 µM (inactive)			> 100 µM (inactive)	> 100 µM (inactive)	> 100 µM (inactive)	> 100 µM (inactive)	> 100 µM (inactive)	> 100 µM (inactive)	27.3 µM (inactive)	> 100 µM (inactive)	> 100 µM (inactive)
COC(=O)C(c1n[nH]c2ccccc12)C(C(=O)OC)c1n[nH]c2ccccc12 (stereo not given)	> 100 µM (inactive)	42.7 µM (inactive)	32.1 µM (inactive)	> 100 µM (inactive)	41.7 µM (inactive)	49.4 µM (inactive)	> 100 µM (inactive)		> 100 µM (inactive)	> 100 µM (inactive)	41.8 µM (inactive)	> 100 µM (inactive)	> 100 µM (inactive)	24.9 µM (inactive)	30.4 µM (inactive)	54.7 µM (inactive)	44.9 µM (inactive)
Nc1ccc(C(c2ccccc2)(c2ccccc2)c2ccccc2)cc1	27.2 µM (inactive)	30.8 µM (inactive)	15.8 µM (inactive)	20.2 µM (inactive)	19.7 µM (inactive)	52.5 µM (inactive)	17.6 µM (inactive)		> 100 µM (inactive)	12.3 µM (inactive)	64.6 µM (inactive)	52.1 µM (inactive)		10.3 µM (inactive)	36.6 µM (inactive)	34.3 µM (inactive)	48.2 µM (inactive)
COc1ccc(C2C(Cl)C(=O)N2NC(=O)c2ccc(NC(C)=O)cc2)cc1 (stereo not given)	> 100 µM (inactive)	> 100 µM (inactive)	> 100 µM (inactive)	> 100 µM (inactive)	> 100 µM (inactive)	> 100 µM (inactive)	> 100 µM (inactive)	> 100 µM (inactive)	> 100 µM (inactive)	> 100 µM (inactive)	> 100 µM (inactive)	> 100 µM (inactive)	> 100 µM (inactive)	> 100 µM (inactive)		> 100 µM (inactive)	> 100 µM (inactive)
O=C1c2ccccc2-c2ccccc2C(=O)C1(Br)Br	14.6 µM (inactive)	3.93 µM (inactive)	5.33 µM (inactive)	10.6 µM (inactive)	7.28 µM (inactive)	11.7 µM (inactive)	19.5 µM (inactive)	2.15 µM (inactive)	17.7 µM (inactive)	16.1 µM (inactive)	14.1 µM (inactive)	14 µM (inactive)	18.1 µM (inactive)	3.56 µM (inactive)	2.02 µM (inactive)	10.7 µM (inactive)	13 µM (inactive)
Cc1c(C(=O)CC(=O)C(=O)Nc2ccc(Cl)cc2)[n+]([O-])c2ccccc2[n+]1[O-]	> 100 µM (inactive)	> 100 µM (inactive)	> 100 µM (inactive)	> 100 µM (inactive)	> 100 µM (inactive)	> 100 µM (inactive)	> 100 µM (inactive)	> 100 µM (inactive)	> 100 µM (inactive)	> 100 µM (inactive)	> 100 µM (inactive)	> 100 µM (inactive)	> 100 µM (inactive)			> 100 µM (inactive)	> 100 µM (inactive)
COc1ccc2c(c1)CN1CCc3c(cc(OC)c(OC)c3OC)C1C2 (stereo not given)	> 100 µM (inactive)	> 100 µM (inactive)	87.1 µM (inactive)	> 100 µM (inactive)	47.6 µM (inactive)	> 100 µM (inactive)	> 100 µM (inactive)	> 100 µM (inactive)	> 100 µM (inactive)	> 100 µM (inactive)	> 100 µM (inactive)	> 100 µM (inactive)	64.1 µM (inactive)	> 100 µM (inactive)	> 100 µM (inactive)	> 100 µM (inactive)	> 100 µM (inactive)
